# Activity calls are given as the source filed them. The calls are words filed in the database; no cut-off is given here.
# Assays:
# [1] = Effect on tau protein expression in pRK5-GFP-Tau P301L plasmid transfected mouse HT-22 cells assessed as reduction in fluorescence intensity at 5 uM by fluorescence microscopic analysis (reference value: 35.0); format: functional
# Cholinesterase = Cholinesterase (Homo sapiens, UniProt P06276); test: Inhibition of human serum BuChE using butyrylthiocholine as substrate incubated for 15 mins by DTNB reagent based Ellman's method; format: cell-free
# Chain of Cholinesterase (P06276 whole entry): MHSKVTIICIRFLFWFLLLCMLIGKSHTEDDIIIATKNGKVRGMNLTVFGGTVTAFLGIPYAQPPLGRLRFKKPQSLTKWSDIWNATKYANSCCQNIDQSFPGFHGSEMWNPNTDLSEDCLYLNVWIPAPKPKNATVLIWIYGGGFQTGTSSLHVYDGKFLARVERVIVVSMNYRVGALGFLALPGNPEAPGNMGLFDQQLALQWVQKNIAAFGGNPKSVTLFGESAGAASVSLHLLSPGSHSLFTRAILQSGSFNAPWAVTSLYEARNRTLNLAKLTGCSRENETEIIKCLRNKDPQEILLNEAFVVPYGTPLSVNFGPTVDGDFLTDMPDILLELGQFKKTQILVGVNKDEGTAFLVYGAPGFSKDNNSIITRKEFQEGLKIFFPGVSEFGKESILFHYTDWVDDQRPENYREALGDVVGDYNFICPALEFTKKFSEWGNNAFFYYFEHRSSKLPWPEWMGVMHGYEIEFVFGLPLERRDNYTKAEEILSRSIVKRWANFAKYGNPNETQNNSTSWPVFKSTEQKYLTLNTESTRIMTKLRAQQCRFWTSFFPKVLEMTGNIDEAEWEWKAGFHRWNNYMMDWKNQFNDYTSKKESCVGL
# [2] = biological target: Amyloid-beta precursor protein (Homo sapiens) (UniProt P05067); test: Disaggregation of Cu2+-induced amyloid beta (1 to 42) (unknown origin) aggregation at 25 uM by thioflavin-T fluorescence method relative to control
# Chain of Amyloid-beta precursor protein (Homo sapiens) (P05067 whole entry): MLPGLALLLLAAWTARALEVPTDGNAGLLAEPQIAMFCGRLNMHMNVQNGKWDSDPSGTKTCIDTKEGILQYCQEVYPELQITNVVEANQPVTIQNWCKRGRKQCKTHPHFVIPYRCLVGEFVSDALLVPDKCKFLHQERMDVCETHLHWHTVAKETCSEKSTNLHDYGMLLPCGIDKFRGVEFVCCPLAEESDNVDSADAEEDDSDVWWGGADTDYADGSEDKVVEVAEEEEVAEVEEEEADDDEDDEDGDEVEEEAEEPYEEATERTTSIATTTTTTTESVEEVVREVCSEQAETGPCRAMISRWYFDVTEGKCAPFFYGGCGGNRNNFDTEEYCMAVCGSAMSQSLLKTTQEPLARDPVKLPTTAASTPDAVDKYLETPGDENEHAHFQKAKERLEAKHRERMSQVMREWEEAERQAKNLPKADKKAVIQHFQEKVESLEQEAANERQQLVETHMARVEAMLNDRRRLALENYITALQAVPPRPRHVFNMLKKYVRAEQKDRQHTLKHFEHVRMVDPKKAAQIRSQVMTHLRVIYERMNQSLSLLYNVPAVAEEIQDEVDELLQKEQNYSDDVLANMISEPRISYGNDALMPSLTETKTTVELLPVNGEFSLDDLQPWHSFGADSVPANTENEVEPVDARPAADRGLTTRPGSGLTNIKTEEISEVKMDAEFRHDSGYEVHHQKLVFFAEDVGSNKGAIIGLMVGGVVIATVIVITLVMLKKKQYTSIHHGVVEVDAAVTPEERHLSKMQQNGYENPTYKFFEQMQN
# L02 = test: Cytotoxicity against human L02 cells assessed as decrease in cell viability measured upto 20 uM by MTT assay; format: toxicity, cell-based; conditions: l02, 20 µM
# [3] = Metal chelating activity assessed as Cu2+-compound complex formation by measuring maximum absorption wavelength shift in the presence of CuCl2 by UV-visible spectrometric analysis
# [4] = Effect on APP protein expression in pEGFP-N1-APP plasmid transfected mouse HT-22 cells assessed as decrease in fluorescence intensity at 5 uM incubated for 24 hrs by fluorescence microscopic analysis (reference value: 30.7); format: functional
# [5] = Cytotoxicity against mouse HT-22 cells assessed as reduction in cell viability by MTT assay; format: toxicity, cell-based
# Butyrylcholinesterase = Butyrylcholinesterase (Rattus norvegicus, UniProt Q9JKC1); test: Inhibition of rat serum Butyrylcholine esterase using butyrylthiocholine as substrate incubated for 15 mins by DTNB reagent based Ellman's method; format: cell-free
# Chain of Butyrylcholinesterase (Q9JKC1 whole entry): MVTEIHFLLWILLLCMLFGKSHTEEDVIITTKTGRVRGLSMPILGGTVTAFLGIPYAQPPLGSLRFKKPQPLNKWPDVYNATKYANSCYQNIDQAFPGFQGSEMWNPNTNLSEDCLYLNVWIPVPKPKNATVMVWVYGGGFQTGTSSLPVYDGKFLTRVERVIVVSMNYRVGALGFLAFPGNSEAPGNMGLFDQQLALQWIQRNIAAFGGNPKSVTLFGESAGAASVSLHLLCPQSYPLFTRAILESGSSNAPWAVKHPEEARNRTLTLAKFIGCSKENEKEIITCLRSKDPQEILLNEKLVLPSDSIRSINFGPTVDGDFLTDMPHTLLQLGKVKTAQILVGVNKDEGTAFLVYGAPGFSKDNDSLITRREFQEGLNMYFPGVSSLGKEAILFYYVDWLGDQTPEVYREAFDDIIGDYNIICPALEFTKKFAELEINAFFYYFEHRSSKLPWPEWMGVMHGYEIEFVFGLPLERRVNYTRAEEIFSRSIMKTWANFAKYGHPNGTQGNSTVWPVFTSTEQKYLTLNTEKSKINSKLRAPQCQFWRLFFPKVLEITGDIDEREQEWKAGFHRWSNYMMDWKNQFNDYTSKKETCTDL
# [6] = biological target: Amyloid-beta precursor protein (Homo sapiens) (UniProt P05067); test: Inhibition of amyloid beta (1 to 42 ) (unknown origin) self-induced aggregation at 25 uM by thioflavin-T fluorescence method relative to control
# [7] = Inhibition of LPS-induced TNFalpha production in mouse BV-2 cells assessed as TNFalpha level at 10 uM by ELISA analysis; format: functional
# [8] = biological target: Amyloid-beta precursor protein (Homo sapiens) (UniProt P05067); test: Inhibition of Cu2+-induced amyloid beta (1 to 42) (unknown origin) aggregation at 25 uM by thioflavin-T fluorescence method relative to control
# [9] = Inhibition of LPS-induced NO production in mouse BV-2 cells at 10 uM by Griess reaction method relative to control; format: functional
compound,measurement,setting,value
CCN(C)C(=O)Oc1ccc(C2CC(=O)c3c(O)cc(OC(=O)N(C)CC)cc3O2)cc1 (configuration not stated),Flu intensity,[1],18.4
same,IC50,Cholinesterase,20.3 µM
same,Activity,[2],54.4%
same,Activity,L02,Non-Toxic
same,Activity,[3],Active
same,Flu intensity,[4],21.9
same,IC50,[5],289 µM
same,IC50,Butyrylcholinesterase,30.6 µM
same,inhibition,[6],60.9%
same,Activity,[7],532 pg/mL
same,inhibition,[8],66.5%
same,inhibition at 10 µM,[9],55.6%

# Reference: ChEMBL document CHEMBL5143570, “Development of naringenin-O-carbamate derivatives as multi-target-directed liagnds for the treatment of Alzheimer's disease” (Bioorg Med Chem Lett, 2022)
